Results on 39 molecules are retold here after PubChem BioAssay (NCI).

Where “and” joins values, the source holds several entries; their conditions need not be identical. Equal values may be shown once.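 Cells were grown in 96-well plates and exposed to each compound for 48 hours at five concentrations; endpoints were interpolated linearly between bracketing concentrations, or set to the highest concentration if not reached. The concentration for 50% growth inhibition is given as GI50. Definition used: TGI = concentration required for complete inhibition of growth.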 Where a SMILES comes first, the peptide text is derived from it. Bridges are numbered along the chain shown (N, C = ends). [ ]: non-standard residue; d: D form. The star is where a group is joined. Phe(3,5-F2) = N[C@@H](Cc1cc(F)cc(F)c1)C(=O)O; Pro(4R-Me) = C[C@H]1CN[C@H](C(=O)O)C1; aThr = C[C@H](O)[C@H](N)C(=O)O; Pip = O=C(O)[C@@H]1CCCCN1; X7 = CCC/C=C/C=C/C(=O)*

Among the test systems are MDA-MB-468 breast; A498 renal; BT-549 breast; CAKI-1 renal; CCRF-CEM leukemia; COLO 205 colon; DU-145 prostate; HCC-2998 colon; HCT-116 colon; HOP-62 NSCLC; HS 578T breast; IGROV1 ovarian; MDA-MB-231 breast; MDA-MB-435; MOLT-4 leukemia; NCI-H226 lung; OVCAR-3 ovarian; OVCAR-5 ovarian; RXF 393 renal; SF-539 CNS; SK-MEL-28 melanoma; SK-OV-3 ovarian; SNB-19 CNS; SNB-75 CNS; SW-620 colon; TK-10 renal; U251 CNS.

Holding throughout (assay): NCI anticancer screen, dose series, 48 h

Consider `Oc1c(CCl)cc(Cl)cc1Cc1cc(Cl)cc(Cc2cc(Cl)cc(CCl)c2O)c1O`, for which, in the experiment on MDA-MB-468 breast, the GI50 is 3.28 µM and the TGI was 13.1 µM.

`COc1cc2cc(Oc3ccc(NC(=O)Nc4ccc(F)c(C(F)(F)F)c4)cc3)c(C)nc2cc1OCCN1CCOCC1`: in the experiment on MDA-MB-468 breast, the GI50 was 0.451 µM and the TGI worked out at 10.4 µM.

As for `CCC/C=C/C=C/C(=O)N[C@@H](Cc1cc(F)cc(F)c1)C(=O)N[C@@H]1C(=O)N2CCC[C@H]2C(=O)N2CCCC[C@H]2C(=O)N[C@@H](C)C(=O)N2C[C@H](C)C[C@H]2C(=O)O[C@H]1C` (X7-[Phe(3,5-F2)][aThr]P[Pip]A[Pro(4R-Me)]; ester 2-C), in the experiment with MDA-MB-468 breast, the GI50 was 0.271 µM and the TGI is 1.03 µM.

As for `Cc1cccc2c1NC(=O)[C@@H](NC(=O)[C@H](CCC(F)(F)F)[C@H](CCC(F)(F)F)C(N)=O)N=C2c1cccc(F)c1`, in the experiment with MDA-MB-468 breast, the GI50 was 18.5 µM and the TGI is more than 100 µM.

For the molecule `CC[n+]1c(/C=C/c2ccc(N3CCCC3)cc2)cccc1/C=C/c1ccc(N2CCCC2)cc1`, in the experiment on MDA-MB-468 breast, the GI50 was 0.0423 µM and the TGI worked out at 0.196 µM.

Consider `CCN1C2=C(SC(=S)C1=C1SC(C(=O)c3ccccc3)=C(C(=O)c3ccccc3)S1)SC(=Nc1ccccc1)C2=O`, for which, in the experiment on MDA-MB-468 breast, the GI50 is more than 50.4 µM and the TGI is more than 100 µM.

Consider `Nc1nc(N)c2cc(Sc3ccc(Cl)cc3)ccc2n1`, for which, in the experiment with MDA-MB-468 breast, the GI50 was 1.15 µM and the TGI is 2.71 µM.

As for `O=C1NC(=N[C@@H]2C[C@H]2c2ccccc2)S/C1=C\c1ccc2ncccc2c1`, in the experiment with MDA-MB-468 breast, the GI50 was 0.872 µM and the TGI turned out to be 5.85 µM.

`COC(=O)Nc1nc2ccc(C(=O)C3CC3)cc2[nH]1`: in the experiment with MDA-MB-468 breast, the GI50 is 0.247 µM and the TGI came out at 1.48 µM.

`NS(=O)(=O)c1ccc(N=Nc2c(O)[nH]c3cccc(CCc4ccncc4)c23)cc1`: in the experiment with MDA-MB-468 breast, the GI50 is more than 25 µM and the TGI is more than 25 µM.

For `NCCSC1(O)C(=O)c2ccccc2-c2ccccc21` (stereo not drawn), in the experiment on MDA-MB-468 breast, the GI50 was 0.615 µM and the TGI was 2.12 µM.

On to `Cc1cc(C)c2c(=O)cc(-c3ccccc3)[nH]c2c1`, for which, in the experiment on MDA-MB-468 breast, the GI50 is 3.79 µM and the TGI was 25.5 µM.

`COc1c(O)cc2c(c1CC=C(C)C)OC(=O)c1c(cc(O)c(CC=C(C)C)c1O)O2`: in the experiment on MDA-MB-468 breast, the GI50 is 4.19 µM and the TGI is 8.21 µM.

As to `CC(C)c1ccc2c(c1)CCC1C(C)(CN)CCCC21C` (stereo not drawn), in the experiment with MDA-MB-468 breast, the GI50 was 1.43 µM and the TGI amounted to 2.76 µM.

As for `O=C1/C(=C\c2ccc(Cl)cc2)CN(C(=O)c2ccccc2)C/C1=C\c1ccc(Cl)cc1`, in the experiment on MDA-MB-468 breast, the GI50 was 1.86 µM and the TGI was 4.28 µM.

As to `COC(=O)CC12CC(NC(=O)c3csc([C@@H](C[C@H](C(C)C)N(C)C(=O)[C@@H](NC(=O)[C@H]4CCCCN4C)C(C)C)OC(C)=O)n3)(C1)C2`, in the experiment on MDA-MB-468 breast, the GI50 is 0.00438 µM and the TGI is more than 33.3 µM.

In the case of `NNC(=S)N/N=C/c1ccccn1`, in the experiment with MDA-MB-468 breast, the GI50 was 1.94 µM and the TGI came to 5.59 µM.

With `Cc1ccc([I+]c2ccc(C)cc2)cc1`, in the experiment with MDA-MB-468 breast, the GI50 is 0.264 µM and the TGI turned out to be 40 µM.

For `O=C(CSc1nc2ccc([N+](=O)[O-])cc2[nH]1)Nc1ccc([N+](=O)[O-])cc1`, in the experiment on MDA-MB-468 breast, the GI50 was 1.08 µM and the TGI was 5.05 µM.

`N#C/C(=C\c1ccc([N+](=O)[O-])cc1)n1nnc2cc(F)c(F)cc21`: in the experiment with MDA-MB-468 breast, the GI50 is 1.51 µM and the TGI was found to be 3.53 µM.

`Nc1n[nH]c2ccc([C@H]3[C@@H]4C5CCC(C5)[C@@H]4c4c(ccc5[nH]ncc45)N3S(=O)(=O)C3CC3)cc12` (stereo partly drawn): in the experiment with MDA-MB-468 breast, the GI50 is 0.137 µM and the TGI was found to be 1.7 µM.

Take `ClCCN(CCCl)c1ccc(OCc2ccccc2)cc1`: in the experiment on MDA-MB-468 breast, the GI50 is 1.45 µM and the TGI is 16.7 µM.

With `COc1ncnn2ccc(-c3cnc4nc(C)n(Cc5nnc(C(C)F)o5)c4c3)c12` (stereo not drawn), in the experiment on MDA-MB-468 breast, the GI50 was 0.051 µM and the TGI was determined as 0.309 µM.

On to `C#CCN(C)CCCOc1ccc(NCc2ccc(C(=O)NO)cc2)cc1Cl`, for which, in the experiment on MDA-MB-468 breast, the GI50 was 1.7 µM and the TGI was 8.14 µM.

As to `COc1ccc(/C=C/C(=O)c2ccc(B(O)O)cc2)cc1O`, in the experiment with MDA-MB-468 breast, the GI50 was 6.23 µM and the TGI came to 18.4 µM.

With `CCOC(=O)Nc1ccc2c3c(cccc13)-c1ccccc1-2`, in the experiment with MDA-MB-468 breast, the GI50 was 1.37 µM and the TGI stood at 5.21 µM.

With `CN1CCN(Cc2ccc(NC(=O)c3cncc(C#Cc4cnc5ccc(OCC6COC6)nn45)c3)cc2C(F)(F)F)CC1`, in the experiment on MDA-MB-468 breast, the GI50 is 0.196 µM and the TGI is 0.726 µM.

Turning to `CC(=O)N[C@@H](Cc1ccc(OP(=O)(O)O)cc1)C(=O)N[C@H]1CCC(=O)N2CCC[C@@H](C(=O)NCc3cccc4ccccc34)N2C1=O`, in the experiment with MDA-MB-468 breast, the GI50 is more than 25 µM and the TGI is more than 25 µM.

Consider `COc1ccc(-c2nc(Nc3ccc(F)cc3)nc(Nc3ccc4c(c3)nc(C)n4Cc3ccccc3)n2)cc1`, for which, in the experiment with MDA-MB-468 breast, the GI50 was 2.27 µM and the TGI came out at 7.22 µM.

Take `CN1CCN(C(=O)OCc2nc3c(N4CCOCC4)nc(-c4ccccc4)nc3n2C)CC1`: in the experiment with MDA-MB-468 breast, the GI50 is 0.558 µM and the TGI turned out to be 2.02 µM.

`CC(C)[C@]12O[C@H]1[C@@H]1O[C@]13[C@]1(O[C@H]1C[C@H]1C4=C(CC[C@@]13C)C(=O)OC4)[C@@H]2OC(=O)OC(C)(C)C`: in the experiment on MDA-MB-468 breast, the GI50 is 0.0147 µM and the TGI is 0.0361 µM.

Consider `Nc1ncnc2occ(-c3ccc(NC(=O)Nc4cc(C(F)(F)F)ccc4F)cc3)c12`, for which, in the experiment with MDA-MB-468 breast, the GI50 is 4.46 µM and 3.9 µM; the TGI is 12.4 µM and 11.8 µM.

Regarding `O=C(NCCNc1nccc(-c2c(-c3ccc(F)cc3)nc3sccn23)n1)Nc1cccc(C(F)(F)F)c1`, in the experiment on MDA-MB-468 breast, the GI50 is 2.14 µM and the TGI is 7.46 µM.

Regarding `COc1ccc2c(c1)OC(N)=C(C#N)C2c1ccc(F)c(F)c1` (stereo not drawn), in the experiment with MDA-MB-468 breast, the GI50 was 0.222 µM and the TGI stood at 3.56 µM.

For `CO[C@@H]1[C@H](N(C)C(=O)c2ccccc2)C[C@@H]2O[C@]1(C)n1c3ccccc3c3c4c(c5c6ccccc6n2c5c31)C(=O)NC4=O`, in the experiment on MDA-MB-468 breast, the GI50 was 0.335 µM and the TGI was more than 100 µM.

As to `O=C(NC(=S)Nc1ccc(-c2nc3ccccc3[nH]2)cc1)c1ccc2ccccc2c1`, in the experiment on MDA-MB-468 breast, the GI50 was 2.34 µM and the TGI was determined as 7.72 µM.

Take `CN1CCc2c(sc3ncnc(N/N=C/c4cn(-c5ccccc5)nc4-c4ccc(Br)cc4)c23)C1`: the GI50 in the experiment with A498 renal was more than 100 µM; in the experiment with BT-549 breast it was more than 100 µM; in the experiment on CAKI-1 renal, more than 100 µM; with CCRF-CEM leukemia it was 0.196 µM; in the experiment on COLO 205 colon, 0.332 µM; in the experiment on DU-145 prostate, more than 100 µM. For the same molecule, the GI50 is 0.285 µM with HCC-2998 colon; 0.102 µM in the experiment on HCT-116 colon; 0.399 µM in the experiment with HOP-62 NSCLC; 16.4 µM in the experiment on HS 578T breast; 0.322 µM with IGROV1 ovarian; 0.362 µM in the experiment with MDA-MB-231 breast. Moreover, the GI50 is more than 100 µM with MDA-MB-435; 0.261 µM in the experiment with MOLT-4 leukemia; more than 100 µM in the experiment with NCI-H226 lung; 0.0375 µM in the experiment with OVCAR-3 ovarian; more than 100 µM with OVCAR-5 ovarian; 18.3 µM with RXF 393 renal. Moreover, the GI50 with SF-539 CNS is 0.282 µM; with SK-MEL-28 melanoma, more than 100 µM; with SK-OV-3 ovarian it was more than 100 µM; in the experiment on SNB-19 CNS it was 20.3 µM; in the experiment with SNB-75 CNS, 5.88 µM; with SW-620 colon it was 0.352 µM. Besides, the GI50 with TK-10 renal was more than 100 µM; in the experiment with U251 CNS it was 0.636 µM. The TGI in the experiment on A498 renal, in the experiment on BT-549 breast, with CAKI-1 renal, in the experiment with CCRF-CEM leukemia, in the experiment with COLO 205 colon and in the experiment on DU-145 prostate was more than 100 µM in each case. Besides, the TGI in the experiment with HCC-2998 colon, with HCT-116 colon, in the experiment on HOP-62 NSCLC, in the experiment on HS 578T breast, with IGROV1 ovarian and in the experiment with MDA-MB-231 breast was more than 100 µM in each case. The TGI in the experiment on MDA-MB-435 was more than 100 µM; with MOLT-4 leukemia, more than 100 µM; in the experiment with NCI-H226 lung, more than 100 µM; in the experiment on OVCAR-3 ovarian it was 0.304 µM; in the experiment with OVCAR-5 ovarian it was more than 100 µM; with RXF 393 renal it was more than 80.7 µM. Moreover, the TGI in the experiment with SF-539 CNS, in the experiment with SK-MEL-28 melanoma, with SK-OV-3 ovarian, in the experiment with SNB-19 CNS, in the experiment on SNB-75 CNS and in the experiment on SW-620 colon was more than 100 µM in each case. For the same molecule, the TGI with TK-10 renal and in the experiment on U251 CNS was more than 100 µM in each case.

In the case of `O=C(/C=C/c1cccnc1)c1ccccc1`, in the experiment with MDA-MB-468 breast, the GI50 was 8.22 µM and the TGI amounted to 22 µM.

On to `COc1cccc(Nc2ncnn3ccc(CN4CC[C@@H](N)[C@H](O)C4)c23)c1`, for which, in the experiment with MDA-MB-468 breast, the GI50 was 0.0333 µM and 0.0201 µM; the TGI was 0.79 µM and 0.175 µM.
